Data taken from ChEMBL document CHEMBL3826971 (Bioorg Med Chem Lett, 2016).

Assay: Acute toxicity in ip dosed mouse measured after 72 hrs
Assay type: organism-based
Conditions: in vivo

| Structure (SMILES) | LD50 at 72 h [mg/kg] |
| --- | --- |
| CN(C)C(=O)Oc1cccc([N+](C)(C)C)c1.COS(=O)(=O)[O-] [NEOSTIGMINE METHYLSULFATE] | 0.51 |
| CN(C)C(=O)Oc1ccc[n+](C)c1.[Br-] [PYRIDOSTIGMINE BROMIDE] | 3.3 |
